Experimental data published in ChEMBL document CHEMBL1126639, “Centrally acting serotonergic and dopaminergic agents. 2. Synthesis and structure-activity relationships of 2,3,3a,4,9,9a-hexahydro-1H-benz[f]indole derivatives” (J Med Chem, 1993).

What was measured:
Mus musculus [1] = experiment: Maximum decrease in temperature when compound is administered subcutaneously; format: functional
D(2) dopamine receptor [2] = molecular target: T1, D(2) dopamine receptor (Rattus norvegicus, UniProt P61169); experiment: Inhibitory concentration against [3H]raclopride-labeled dopamine receptor D2 in rat striatum; format: tissue-based
D(2) dopamine receptor [3] = molecular target: D(2) dopamine receptor (Homo sapiens, UniProt P14416); experiment: Binding affinity against [3H]U-86,170-labeled dopamine receptor D2 in cloned CHO cells; format: cell-based
Mus musculus [4] = experiment: Effective dose on hypothermia in mouse when administered subcutaneously (95% confidence levels); format: functional; conditions: sc
Mus musculus [5] = experiment: Maximum decrease in temperature when compound is administered through peroral route; format: functional
Felis catus [6] = species: Felis catus; experiment: Percent of arterial blood pressure at sympathetic nerve activity (SND) dose value was determined; format: functional
Mus musculus [7] = experiment: Effective dose on hypothermia in mouse when administered through peroral route; format: functional; conditions: Mus musculus, po; read-out: ED50
Rattus norvegicus [8] = experiment: Effect on the synthesis rates of dopamine (DOPA accumulation) in the rat ventral limbic brain region at 3.4 uM/kg.; format: functional, Limbic system
Felis catus [9] = experiment: Maximum decrease of sympathetic nerve activity (SND) in anesthetized cat; format: functional; set-up: scale not given: the % may be the effect or the level left
Felis catus [10] = experiment: Maximum decrease of arterial blood pressure at sympathetic nerve activity (SND) in anesthetized cat has been observed following 1 mg/kg dose; format: functional; set-up: scale not given: the % may be the effect or the level left
Felis catus [11] = experiment: Effective dose at which the sympathetic nerve activity (SND) has been reduced to 50% of the pretreatment value in anesthetized cat; format: functional
Rattus norvegicus [12] = experiment: Effect on the synthesis rates of serotonin (5-HTP accumulation) in the rat ventral limbic brain region 3.4 umol/kg.; format: functional, Limbic system
Mus musculus [13] = experiment: Effective dose on hypothermia in mouse when administered subcutaneously; format: functional; conditions: sc
[14] = molecular target: Sodium-dependent dopamine transporter (Rattus norvegicus) (UniProt P23977); experiment: Inhibition of firing rates of serotonergic neurons in the dorsal raphe nucleus by intravenous injection in rats.; format: functional, tissue-based
Rattus norvegicus [15] = experiment: Effect on the synthesis rates of dopamine in the rat ventral limbic brain region at 3.0 micro mol/kg; format: functional, Limbic system
Rattus norvegicus [16] = experiment: Effect on the synthesis rates of serotonin in the rat ventral limbic brain region 3.0 micro mol/kg.; format: functional, Limbic system
Mus musculus [17] = experiment: Time of effect in the face-to-face behavioral assay in the mouse when a dose of 0.3 micro mol/kg is administered subcutaneously; format: functional
Mus musculus [18] = experiment: Time of effect in the isolation-induced aggression behavioral assay in the mouse when a dose of 0.3 micro mol/kg is administered intraperitoneally; format: functional
Mus musculus [19] = experiment: Time of effect in the isolation-induced aggression behavioral assay in the mouse when a dose of 0.9 micro mol/kg is administered intraperitoneally; format: functional
Mus musculus [20] = species: Mus musculus; experiment: Time of effect in the face-to-face behavioral assay in the mouse […]; format: functional
Mus musculus [21] = experiment: Time of effect in the isolation-induced aggression behavioral assay in the mouse when a dose of 3.0 micro mol/kg is administered intraperitoneally; format: functional
Mus musculus [22] = experiment: Time of effect in the isolation-induced aggression behavioral assay in the mouse when a dose of 30 micro mol/kg is administered intraperitoneally; format: functional
Rattus norvegicus [23] = experiment: Effect on the synthesis rates of serotonin in the rat ventral limbic brain region 0.3 micro mol/kg.; format: functional, Limbic system
[24] = molecular target: Sodium-dependent dopamine transporter (Rattus norvegicus) (UniProt P23977); experiment: Inhibition of firing rates of dopaminergic neurons in the substantia nigra pars compacta by intravenous injection in rats.; format: functional, tissue-based
Rattus norvegicus [25] = experiment: Effect on the synthesis rates of dopamine in the rat ventral limbic brain region at 0.3 micro mol/kg.; format: functional, Limbic system
Felis catus [26] = experiment: Maximum decrease of sympathetic nerve activity (SND) in anesthetized cat has been expressed as percent control; format: functional; set-up: scale not given: the % may be the effect or the level left
Mus musculus [27] = experiment: Time of effect in the face-to-face behavioral assay in the mouse when a dose of 3.0 micro mol/kg is administered subcutaneously; format: functional
Mus musculus [28] = experiment: Time of effect in the face-to-face behavioral assay in the mouse when a dose of 30 micro mol/kg is administered subcutaneously; format: functional
Mus musculus [29] = experiment: Time of effect in the isolation-induced aggression behavioral assay in the mouse when a dose of 9.1 micro mol/kg is administered intraperitoneally; format: functional
Mus musculus [30] = experiment: Time of effect in the face-to-face behavioral assay in the mouse when a dose of 2.8 micro mol/kg is administered subcutaneously; format: functional
Mus musculus [31] = experiment: Time of effect in the face-to-face behavioral assay in the mouse when a dose of 28 micro mol/kg is administered subcutaneously; format: functional
Mus musculus [32] = experiment: Time of effect in the face-to-face behavioral assay in the mouse when a dose of 8.4 micro mol/kg is administered subcutaneously; format: functional
Mus musculus [33] = experiment: Time of effect in the face-to-face behavioral assay in the mouse when a dose of 0.0 micro mol/kg is administered perorally; format: functional
Rattus norvegicus [34] = experiment: Effect on the synthesis rates of dopamine (DOPA accumulation) in the rat ventral limbic brain region at 10.7 uM/kg.; format: functional, Limbic system
Mus musculus [35] = experiment: Time of effect in the face-to-face behavioral assay in the mouse when a dose of 36 micro mol/kg is administered perorally; format: functional
Mus musculus [36] = experiment: Time of effect in the isolation-induced aggression behavioral assay in the mouse when a dose of 36 micro mol/kg is administered perorally; format: functional
Mus musculus [37] = experiment: Time of effect in the isolation-induced aggression behavioral assay in the mouse when a dose of 11 micro mol/kg is administered intraperitoneally; format: functional
Rattus norvegicus [38] = experiment: Inhibition of firing rates of dopaminergic neurons in the substantia nigra pars compacta by intravenous injection in rats; format: functional
Mus musculus [39] = experiment: Time of effect in the isolation-induced aggression behavioral assay in the mouse when a dose of 0.0 micro mol/kg is administered intraperitoneally; format: functional
Mus musculus [40] = experiment: Time of effect in the isolation-induced aggression behavioral assay in the mouse when a dose of 36 micro mol/kg is administered intraperitoneally; format: functional
Mus musculus [41] = experiment: Time of effect in the face-to-face behavioral assay in the mouse when a dose of 11 micro mol/kg is administered perorally; format: functional
Rattus norvegicus [42] = experiment: Inhibition of firing rates of serotonergic neurons in the dorsal raphe nucleus by intravenous injection in rats; format: functional; conditions: Rattus norvegicus, Dorsal raphe nucleus, iv; read-out: ED50
Mus musculus [43] = experiment: Time of effect in the isolation-induced aggression behavioral assay in the mouse when a dose of 11 micro mol/kg is administered perorally; format: functional
Mus musculus [44] = experiment: Time of effect in the isolation-induced aggression behavioral assay in the mouse when a dose of 3.6 micro mol/kg is administered perorally; format: functional
D(2) dopamine receptor [45] = molecular target: T1, D(2) dopamine receptor; experiment: Binding affinity for [3H]raclopride-labeled dopamine receptor D2 in rat striatum; format: tissue-based
Rattus norvegicus [46] = experiment: Effect on the synthesis rates of serotonin (5-HTP accumulation) in the rat ventral limbic brain region 10.7 umol/kg.; format: functional, Limbic system

Chain of Sodium-dependent dopamine transporter (Rattus norvegicus) (P23977 whole entry): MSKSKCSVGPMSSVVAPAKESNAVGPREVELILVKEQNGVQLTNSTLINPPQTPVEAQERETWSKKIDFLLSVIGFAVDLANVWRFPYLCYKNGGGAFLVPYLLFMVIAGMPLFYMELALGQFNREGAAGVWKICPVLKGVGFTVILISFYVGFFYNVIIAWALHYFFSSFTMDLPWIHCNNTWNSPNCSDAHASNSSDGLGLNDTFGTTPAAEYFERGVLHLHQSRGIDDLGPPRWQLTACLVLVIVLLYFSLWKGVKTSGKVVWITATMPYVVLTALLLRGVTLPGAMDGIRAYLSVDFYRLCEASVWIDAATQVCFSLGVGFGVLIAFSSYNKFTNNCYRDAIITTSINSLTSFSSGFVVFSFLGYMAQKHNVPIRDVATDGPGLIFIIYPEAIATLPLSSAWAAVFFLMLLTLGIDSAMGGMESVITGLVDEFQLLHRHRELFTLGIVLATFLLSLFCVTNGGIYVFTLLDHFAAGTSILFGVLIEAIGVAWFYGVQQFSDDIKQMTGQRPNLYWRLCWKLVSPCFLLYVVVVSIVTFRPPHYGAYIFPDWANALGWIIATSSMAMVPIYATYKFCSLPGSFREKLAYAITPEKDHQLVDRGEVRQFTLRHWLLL
T1 sequence (P61169 whole entry): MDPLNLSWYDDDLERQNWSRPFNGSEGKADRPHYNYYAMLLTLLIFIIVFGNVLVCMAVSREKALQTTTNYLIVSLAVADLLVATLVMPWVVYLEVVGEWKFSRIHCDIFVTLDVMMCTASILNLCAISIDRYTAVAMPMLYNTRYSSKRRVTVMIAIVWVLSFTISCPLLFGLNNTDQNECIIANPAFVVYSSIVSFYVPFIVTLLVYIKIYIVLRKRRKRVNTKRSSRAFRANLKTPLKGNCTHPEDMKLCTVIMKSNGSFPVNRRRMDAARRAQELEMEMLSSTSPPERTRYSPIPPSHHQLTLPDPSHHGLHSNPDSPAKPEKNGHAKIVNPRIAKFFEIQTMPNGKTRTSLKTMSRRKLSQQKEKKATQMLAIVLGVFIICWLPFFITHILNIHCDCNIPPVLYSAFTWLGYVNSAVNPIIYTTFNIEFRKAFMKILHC
Chain of D(2) dopamine receptor (Homo sapiens, UniProt P14416) (P14416 whole entry): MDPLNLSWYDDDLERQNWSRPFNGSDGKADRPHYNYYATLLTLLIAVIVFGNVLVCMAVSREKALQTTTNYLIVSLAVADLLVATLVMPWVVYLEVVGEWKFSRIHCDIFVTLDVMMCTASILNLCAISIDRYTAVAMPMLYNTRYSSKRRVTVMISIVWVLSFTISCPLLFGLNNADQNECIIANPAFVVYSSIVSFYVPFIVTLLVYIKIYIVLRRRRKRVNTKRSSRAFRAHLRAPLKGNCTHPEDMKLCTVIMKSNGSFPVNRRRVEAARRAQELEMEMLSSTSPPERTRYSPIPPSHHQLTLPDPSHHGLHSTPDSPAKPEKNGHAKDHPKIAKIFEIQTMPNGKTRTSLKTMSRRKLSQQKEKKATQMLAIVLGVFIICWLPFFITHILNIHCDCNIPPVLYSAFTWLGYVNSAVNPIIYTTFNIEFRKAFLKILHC

CCCN1[C@@H](C)C[C@@H]2Cc3cccc(OC)c3C[C@@H]21 (racemic)
Max temperature decrease (Mus musculus [1]): 7.8 | IC50 (D(2) dopamine receptor [2]): > 1000 nM | Ki (D(2) dopamine receptor [3]): 464 nM | ED50 (Mus musculus [4]): 4.4 µmol/kg | Max temperature decrease (Mus musculus [5]): 3.1 | BP (Felis catus [6]): 85% | ED50 (Mus musculus [7]): > 101 µmol/kg | Control (Rattus norvegicus [8]): 32% | Control (Felis catus [9]): 25% | Control (Felis catus [10]): 63% | ED50 (Felis catus [11]): 1.18 µmol/kg | Control (Rattus norvegicus [12]): -44%

CCCN(CCC)C1CCc2cccc(O)c2C1 (stereo not drawn) [8-OH-DPAT]
ED50 (Mus musculus [13]): 1 µmol/kg | Max temperature decrease (Mus musculus [1]): 7.2 | ED50 [14]: 0.005 µmol/kg | Control (Rattus norvegicus [15]): 3% | Control (Rattus norvegicus [16]): -47% | Time (Mus musculus [17]): 1.6 s | Time (Mus musculus [18]): 11 s | Time (Mus musculus [19]): 20 s | Time (Mus musculus [20]): 1.1 s | Max temperature decrease (Mus musculus [5]): 7.5 | Time (Mus musculus [21]): 310 s | BP (Felis catus [6]): 66% | Time (Mus musculus [22]): 351 s | ED50 (Mus musculus [7]): 9.7 µmol/kg | Control (Rattus norvegicus [23]): -37% | ED50 [24]: 2.25 µmol/kg | Control (Rattus norvegicus [25]): 16% | Control (Felis catus [10]): 57% | Control (Felis catus [26]): 2% | ED50 (Felis catus [11]): 0.03 µmol/kg | Time (Mus musculus [27]): 5 s | Time (Mus musculus [28]): 4.4 s | Time (Mus musculus [29]): 437 s

CN(C)CCCN1c2ccccc2Sc2ccc(Cl)cc21.Cl [CHLORPROMAZINE HYDROCHLORIDE]
Time (Mus musculus [20]): 3.6 s | Time (Mus musculus [30]): 5.8 s | Time (Mus musculus [31]): 0 s | Time (Mus musculus [32]): 1.3 s

C=CCN1CC[C@H]2Cc3c(cccc3OC)C[C@@H]21
Time (Mus musculus [33]): 0.3 s | Control (Rattus norvegicus [34]): 29% | Time (Mus musculus [35]): 0.9 s | Time (Mus musculus [36]): 219 s | Time (Mus musculus [37]): 46 s | ED50 (Rattus norvegicus [38]): 4.75 µmol/kg | Time (Mus musculus [39]): 5 s | Time (Mus musculus [40]): 83 s | Time (Mus musculus [41]): 0.7 s | ED50 (Rattus norvegicus [42]): 3.97 µmol/kg | Time (Mus musculus [43]): 63 s | Time (Mus musculus [44]): 36 s | Ki (D(2) dopamine receptor [45]): > 1000 nM | Control (Rattus norvegicus [46]): 4%
